These compounds were tested against T1, mouse TRPM3α2 (mTRPM3) ion channel (Mus musculus, UniProt J9SQF3) (assay: TRPM3 ion channel driven Ca2+ uptake, Fluo-4 AM assay, PS-stimulated (mTRPM3)). Conditions: TRPM3 overexpressing flip-in HEK293 cells stimulated with Pregnenolone sulfate (PS) 50 μM, activity ranges A, B, C.
T1 construct: expressed in transfected cells; host or cells: flip-in HEK293
Assay type: cell-based
Protocol: Monitoring the TRPM3 Ion Channel Driven Ca^2+ Uptake.
In order to monitor the inhibition of the mouse TRPM3α2 (mTRPM3) ion channel by the compounds of the invention, a cellular system making use of an mTRPM3alpha2 or hTRPM3 overexpressing cell line (flip-in HEK293) was used. The TRPM3 channel was stimulated/opened with Pregnenolone sulfate (PS) (50 μM) which results in Ca^2+ influx.
For mTRPM3, the intracellular Ca^2+ was measured with a Calcium responsive dye, Fluor-4 AM ester (Invitrogen). Cells were cultured until a confluence of 80-90%, washed with Versene (Invitrogen) and detached from the surface by a short incubation with 0.05% Trypsin (Invitrogen). The trypsination process was stopped by the addition of complete cell culture medium (DMEM, glutamax, 10% FCS, NEAA, Pen-Strep). Cells were collected and resuspended in Krebs buffer without Calcium at RT.
Prior the cell seeding (±2000 cells/well into a black, 384 well plate (Greiner)) the diluted compound was added in the assay plate, together with the PS dissolved in Krebs buffer containing Calcium. […] Directly after cell addition the plates were read on an Envision fluorescence reader (Perkin Elmer) by an Excitation of 485 nm and emission at 535 nm.
Channel inhibition was calculated compared to a non-PS stimulated control versus a condition stimulated with PS (50 μM) with vehicle. The ability of the compounds of the invention to inhibit this activity was determined as: Percentage inhibition=[1−((RFU determined for sample with test compound present−RFU determined for sample with positive control inhibitor) divided by (RFU determined in the presence of vehicle−RFU determined for sample with positive control inhibitor))]*100.
The activities of the Example compounds tested are depicted in the table below.

T1 sequence (J9SQF3 1-1709 isoform J9SQF3-12): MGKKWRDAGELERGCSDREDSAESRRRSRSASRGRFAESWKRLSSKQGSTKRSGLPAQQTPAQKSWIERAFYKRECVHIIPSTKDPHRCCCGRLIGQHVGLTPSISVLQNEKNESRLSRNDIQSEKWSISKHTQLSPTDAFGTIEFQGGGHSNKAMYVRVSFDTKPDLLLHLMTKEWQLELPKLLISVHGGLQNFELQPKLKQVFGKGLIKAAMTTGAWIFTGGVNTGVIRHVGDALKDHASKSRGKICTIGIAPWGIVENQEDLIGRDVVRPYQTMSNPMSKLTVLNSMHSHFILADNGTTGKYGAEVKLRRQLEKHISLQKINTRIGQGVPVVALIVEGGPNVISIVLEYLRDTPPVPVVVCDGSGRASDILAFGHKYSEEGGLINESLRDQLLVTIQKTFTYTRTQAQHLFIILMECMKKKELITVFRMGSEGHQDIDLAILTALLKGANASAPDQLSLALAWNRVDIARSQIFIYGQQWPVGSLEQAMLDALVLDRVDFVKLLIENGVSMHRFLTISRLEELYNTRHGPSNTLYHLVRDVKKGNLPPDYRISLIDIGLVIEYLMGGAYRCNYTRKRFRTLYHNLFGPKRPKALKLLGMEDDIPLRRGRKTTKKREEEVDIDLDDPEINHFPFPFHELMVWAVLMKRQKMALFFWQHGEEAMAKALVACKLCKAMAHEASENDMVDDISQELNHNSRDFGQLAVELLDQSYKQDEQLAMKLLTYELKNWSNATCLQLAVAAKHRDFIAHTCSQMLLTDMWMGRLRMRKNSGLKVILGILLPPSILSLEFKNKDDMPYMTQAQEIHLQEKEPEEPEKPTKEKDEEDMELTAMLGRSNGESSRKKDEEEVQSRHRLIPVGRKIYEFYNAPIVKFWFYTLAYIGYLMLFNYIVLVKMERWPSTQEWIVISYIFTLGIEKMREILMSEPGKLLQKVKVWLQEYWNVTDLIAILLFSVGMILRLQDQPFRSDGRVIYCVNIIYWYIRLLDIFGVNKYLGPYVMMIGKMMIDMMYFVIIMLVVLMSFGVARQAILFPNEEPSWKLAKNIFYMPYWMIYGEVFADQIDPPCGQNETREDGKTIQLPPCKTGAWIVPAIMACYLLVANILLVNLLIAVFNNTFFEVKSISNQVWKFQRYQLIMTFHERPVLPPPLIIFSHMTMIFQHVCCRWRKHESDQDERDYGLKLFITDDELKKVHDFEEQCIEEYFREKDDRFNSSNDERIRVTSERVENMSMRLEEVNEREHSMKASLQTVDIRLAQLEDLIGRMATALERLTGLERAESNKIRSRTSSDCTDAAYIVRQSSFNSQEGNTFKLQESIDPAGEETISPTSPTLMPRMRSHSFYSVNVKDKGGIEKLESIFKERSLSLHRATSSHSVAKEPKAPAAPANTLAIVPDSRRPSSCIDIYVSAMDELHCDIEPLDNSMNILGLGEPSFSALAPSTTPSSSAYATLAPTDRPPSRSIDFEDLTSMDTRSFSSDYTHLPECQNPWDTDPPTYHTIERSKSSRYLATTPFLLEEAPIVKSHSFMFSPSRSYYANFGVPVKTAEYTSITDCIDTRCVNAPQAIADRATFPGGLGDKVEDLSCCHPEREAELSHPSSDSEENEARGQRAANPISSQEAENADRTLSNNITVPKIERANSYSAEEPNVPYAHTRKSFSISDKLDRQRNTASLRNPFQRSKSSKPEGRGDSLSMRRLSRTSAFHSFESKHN

Structure (SMILES) | IC50
Cc1oc2ccc(OCc3ccccc3)cc2c1C(=O)NC1CNCC1F (racemic) [Cpd 093, rac-5-(benzyloxy)-N-(trans-4-fluoropyrrolidin-3-yl)-2-methylbenzofuran-3-carboxamide] | < 1 µM
Cc1oc2ccc(OCc3ccccc3)cc2c1C(=O)NC1CNCC1F (racemic) [Cpd 094, rac-5-(benzyloxy)-N-(cis-4-fluoropyrrolidin-3-yl)-2-methylbenzofuran-3-carboxamide] | < 1 µM
Cc1oc2ccc(OCc3ccccc3)cc2c1C(=O)NC1CCNC(C)C1 (racemic) [Cpd 114, rac-5-(benzyloxy)-2-methyl-N-(trans-2-methylpiperidin-4-yl)benzofuran-3-carboxamide] | < 1 µM
Cc1oc2ccc(OCc3ccccc3)cc2c1C(=O)NC1CCNC(C)C1 (racemic) [Cpd 115, rac-5-(benzyloxy)-2-methyl-N-(cis-2-methylpiperidin-4-yl)benzofuran-3-carboxamide] | < 1 µM
Cc1oc2ccc(OC(C)c3ccccc3C(F)(F)F)cc2c1C(=O)N[C@H]1CCNC1 (mixture of isomers) [Cpd 220, rac-2-methyl-N—((R)-pyrrolidin-3-yl)-5-(1-(2-(trifluoromethyl)phenyl)ethoxy)benzofuran-3-carboxamide] | < 1 µM
CCC(Oc1ccc2oc(C)c(C(=O)N[C@H]3CCNC3)c2c1)c1ccccc1C(F)(F)F (mixture of isomers) [Cpd 231, rac-2-methyl-N—((R)-pyrrolidin-3-yl)-5-(1-(2-(trifluoromethyl)phenyl)propoxy)benzofuran-3-carboxamide] | < 1 µM
Cc1oc2ccc(OCc3ccccc3)cc2c1C(=O)N[C@@H]1CCN(C(=O)OC(C)(C)C)[C@@H](C)C1 (racemic) [Cpd 251, tert-butyl trans-4-(5-(benzyloxy)-2-methylbenzofuran-3-carboxamido)-2-methylpiperidine-1-carboxylate] | < 1 µM
Cc1oc2ccc(OC(C)c3ccccc3C(F)(F)F)cc2c1C(=O)N[C@H]1CCN(C(=O)OC(C)(C)C)C1 (mixture of isomers) [Cpd 267, rac-tert-butyl (3R)-3-(2-methyl-5-(1-(2-(trifluoromethyl)phenyl)ethoxy)benzofuran-3-carboxamido)pyrrolidine-1-carboxylate] | > 20 µM
Cc1oc2ccc(OCc3ccccc3F)cc2c1C(=O)N[C@@H]1COC[C@H]1O (relative stereo) [Cpd 330-En 2] | < 1 µM
Cc1oc2ccc(OCc3ccccc3)cc2c1C(=O)NC1CNCCC1F (single isomer, unassigned) [Cpd 130-Dia 1] | < 1 µM
Cc1oc2ccc(OCc3ccccc3)cc2c1C(=O)NC1CNCCC1F (single isomer, unassigned) [Cpd 130-Dia 2] | < 1 µM
Cc1oc2ccc(OCc3ccccc3)cc2c1C(=O)NC1CCN2CCCC12 (single isomer, unassigned) [Cpd 144-Dia 1, 5-(benzyloxy)-N-(hexahydro-1H-pyrrolizin-1-yl)-2-methylbenzofuran-3-carboxamide] | < 1 µM
Cc1oc2ccc(OCc3ccccc3)cc2c1C(=O)NC1CCN2CCCC12 (single isomer, unassigned) [Cpd 144-Dia 2, 5-(benzyloxy)-N-(hexahydro-1H-pyrrolizin-1-yl)-2-methylbenzofuran-3-carboxamide] | < 1 µM
Cc1oc2ccc(OCc3ccccc3)cc2c1C(=O)NC1CN(C(=O)OC(C)(C)C)CCC1F (single isomer, unassigned) [Cpd 255-Dia 1, tert-butyl 3-(5-(benzyloxy)-2-methylbenzofuran-3-carboxamido)-4-fluoropiperidine-1-carboxylate] | < 1 µM
Cc1oc2ccc(OCc3ccccc3)c(C#N)c2c1C(=O)NC1CNCC1(F)F (single isomer, unassigned) [Cpd 297-En 1, 5-(benzyloxy)-4-cyano-N-(4,4-difluoropyrrolidin-3-yl)-2-methylbenzofuran-3-carboxamide] | < 1 µM
Cc1oc2ccc(OCc3ccccc3)c(C#N)c2c1C(=O)NC1CNCC1(F)F (single isomer, unassigned) [Cpd 297-En 2, 5-(benzyloxy)-4-cyano-N-(4,4-difluoropyrrolidin-3-yl)-2-methylbenzofuran-3-carboxamide] | 1 to 20 µM
Cc1oc2ccc(OCc3ccccc3)c(F)c2c1C(=O)NC1CNCC1(F)F (single isomer, unassigned) [Cpd 298-En 1, 5-(benzyloxy)-N-(4,4-difluoropyrrolidin-3-yl)-4-fluoro-2-methylbenzofuran-3-carboxamide] | < 1 µM

Structure (SMILES) | IC50
Cc1oc2ccc(OCc3ccccc3)c(F)c2c1C(=O)NC1CNCC1(F)F (single isomer, unassigned) [Cpd 298-En 2, 5-(benzyloxy)-N-(4,4-difluoropyrrolidin-3-yl)-4-fluoro-2-methylbenzofuran-3-carboxamide] | 1 to 20 µM
Cc1oc2ccc(OCc3ccccc3)c(C)c2c1C(=O)NC1CNCC1(F)F (single isomer, unassigned) [Cpd 299-En 1, 5-(benzyloxy)-N-(4,4-difluoropyrrolidin-3-yl)-2,4-dimethylbenzofuran-3-carboxamide] | < 1 µM
Cc1oc2ccc(OCc3ccccc3)c(C)c2c1C(=O)NC1CNCC1(F)F (single isomer, unassigned) [Cpd 299-En 2, 5-(benzyloxy)-N-(4,4-difluoropyrrolidin-3-yl)-2,4-dimethylbenzofuran-3-carboxamide] | < 1 µM
Cc1oc2cc(Cl)c(OCc3ccccc3)cc2c1C(=O)NC1CNCC1(F)F (single isomer, unassigned) [Cpd 300-En 1, 5-(benzyloxy)-6-chloro-N-(4,4-difluoropyrrolidin-3-yl)-2-methylbenzofuran-3-carboxamide] | 1 to 20 µM
Cc1oc2cc(Cl)c(OCc3ccccc3)cc2c1C(=O)NC1CNCC1(F)F (single isomer, unassigned) [Cpd 300-En 2, 5-(benzyloxy)-6-chloro-N-(4,4-difluoropyrrolidin-3-yl)-2-methylbenzofuran-3-carboxamide] | > 20 µM
Cc1oc2cc(C#N)c(OCc3ccccc3)cc2c1C(=O)NC1CNCC1(F)F (single isomer, unassigned) [Cpd 301-En 1, 5-(benzyloxy)-6-cyano-N-(4,4-difluoropyrrolidin-3-yl)-2-methylbenzofuran-3-carboxamide] | > 20 µM
Cc1oc2cc(C#N)c(OCc3ccccc3)cc2c1C(=O)NC1CNCC1(F)F (single isomer, unassigned) [Cpd 301-En 2, 5-(benzyloxy)-6-cyano-N-(4,4-difluoropyrrolidin-3-yl)-2-methylbenzofuran-3-carboxamide] | > 20 µM
Cc1oc2cc(F)c(OCc3ccccc3)cc2c1C(=O)NC1CNCC1(F)F (single isomer, unassigned) [Cpd 302-En 1, 5-(benzyloxy)-N-(4,4-difluoropyrrolidin-3-yl)-6-fluoro-2-methylbenzofuran-3-carboxamide] | < 1 µM
Cc1oc2cc(F)c(OCc3ccccc3)cc2c1C(=O)NC1CNCC1(F)F (single isomer, unassigned) [Cpd 302-En 2, 5-(benzyloxy)-N-(4,4-difluoropyrrolidin-3-yl)-6-fluoro-2-methylbenzofuran-3-carboxamide] | < 1 µM
Cc1cc2oc(C)c(C(=O)NC3CNCC3(F)F)c2cc1OCc1ccccc1 (single isomer, unassigned) [Cpd 303-En 1, 5-(benzyloxy)-N-(4,4-difluoropyrrolidin-3-yl)-2,6-dimethylbenzofuran-3-carboxamide] | 1 to 20 µM
Cc1cc2oc(C)c(C(=O)NC3CNCC3(F)F)c2cc1OCc1ccccc1 (single isomer, unassigned) [Cpd 303-En 2, 5-(benzyloxy)-N-(4,4-difluoropyrrolidin-3-yl)-2,6-dimethylbenzofuran-3-carboxamide] | > 20 µM
Cc1oc2c(Cl)cc(OCc3ccccc3)cc2c1C(=O)NC1CNCC1(F)F (single isomer, unassigned) [Cpd 304-En 1, 5-(benzyloxy)-7-chloro-N-(4,4-difluoropyrrolidin-3-yl)-2-methylbenzofuran-3-carboxamide] | 1 to 20 µM
Cc1oc2c(Cl)cc(OCc3ccccc3)cc2c1C(=O)NC1CNCC1(F)F (single isomer, unassigned) [Cpd 304-En 2, 5-(benzyloxy)-7-chloro-N-(4,4-difluoropyrrolidin-3-yl)-2-methylbenzofuran-3-carboxamide] | > 20 µM
Cc1oc2c(C#N)cc(OCc3ccccc3)cc2c1C(=O)NC1CNCC1(F)F (single isomer, unassigned) [Cpd 305-En 1, 5-(benzyloxy)-7-cyano-N-(4,4-difluoropyrrolidin-3-yl)-2-methylbenzofuran-3-carboxamide] | > 20 µM
Cc1oc2c(C#N)cc(OCc3ccccc3)cc2c1C(=O)NC1CNCC1(F)F (single isomer, unassigned) [Cpd 305-En 2, 5-(benzyloxy)-7-cyano-N-(4,4-difluoropyrrolidin-3-yl)-2-methylbenzofuran-3-carboxamide] | > 20 µM
Cc1oc2c(F)cc(OCc3ccccc3)cc2c1C(=O)NC1CNCC1(F)F (single isomer, unassigned) [Cpd 306-En 1] | < 1 µM
